# Results reported in patent publication US7582424B2 (priority 2000, dated 2009).
# Legend:
# [1] = system: Ace-induced Isc response by T84 cell monolayers; assay: cells; format: cell-based, human
# T84 cell monolayers = format: cell-based, human
# cAMP = format: cell-based
# cGMP = format: cell-based
# chloride secretion = settings: cited from earlier work
# [2] = system: ACE-stimulated Isc in 16HBE14o- cell monolayers; format: cell-based, human
# polarized T84 cells = settings: cited from earlier work
compound,measurement,setting,value
O=C1CN(/N=C/c2ccc(-c3ccc([N+](=O)[O-])cc3)o2)C(O)=N1 [dantrolene],inhibition at 50 µM,"[1]; Homo sapiens, T84, read-out: inhibition of Ace-induced Isc response",~70%
C/C=C(/C)C(=O)O[C@H]1C(C)=C2[C@H]([C@@H]1OC(=O)CCCCCCC)[C@@](C)(OC(C)=O)C[C@H](OC(=O)CCC)[C@@]1(O)[C@H]2OC(=O)[C@@]1(C)O [thapsigargin],"mean peak Isc, agent alone",T84 cell monolayers,10.2±4.3
"CC(=O)OCOC(=O)CN(CC(=O)OCOC(C)=O)c1ccccc1OCCOc1ccccc1N(CC(=O)OCOC(C)=O)CC(=O)OCOC(C)=O [BAPTA, 1,2-bis(2-aminophenoxy)ethane-N,N,N′,N′-tetraacetic acid (BAPTA)-AM]",effect on Ace-induced Isc,[1],near ablation
C[N+](C)(C)CCOC(N)=O [carbachol],effect of carbachol pretreatment on thapsigargin-induced chloride secretion (Isc response),T84 cell monolayers,blocks
same,"peak Isc, agent alone",T84 cell monolayers,9.8±1.1 μAmp/cm^2
same,return of Isc nearly to baseline,T84 cell monolayers,≤ 10 min
same,"time of peak Isc, agent alone",T84 cell monolayers,4 min
same,effect on cellular cAMP,cAMP,no significant effect
same,effect on cellular cGMP,cGMP,no significant effect
Clc1ccccc1C(c1ccccc1)(c1ccccc1)n1ccnc1 [clotrimazole],reduction in Ace-stimulated Isc,[1],92%
same,inhibition of carbachol-dependent secretion,chloride secretion,84%
C=C[C@@]1(C)CC(=O)[C@]2(O)[C@@]3(C)[C@@H](O)CCC(C)(C)[C@@H]3[C@H](O)[C@H](OC(C)=O)[C@@]2(C)O1 [forskolin],"mean peak Isc, forskolin followed by carbachol",T84 cell monolayers,69.3±2.4 μAmps/cm^2
same,"predicted additive effect, forskolin and carbachol, mean peak Isc",T84 cell monolayers,49.0±2.9
same,effect on cellular cGMP,cGMP,no effect
COc1ccc(CCN(C)CCCC(C#N)(c2ccc(OC)c(OC)c2)C(C)C)cc1OC (centres unmarked) [verapamil],effect on Ace-induced Isc response,[1],no significant effect
CCCCNc1cc(C(=O)O)cc(S(N)(=O)=O)c1Oc1ccccc1 [bumetanide],effect by itself on Isc or PD,T84 cell monolayers,no effect
same,effect on Ace action when added after Ace,[1],reverses
same,inhibition at 100 µM,"[1]; Homo sapiens, T84, read-out: inhibition of the action of Ace (Isc)",~60%
NPPB,decrease in ACE-stimulated Isc,[2],~80%
O=c1c(-c2ccc(O)cc2)coc2cc(O)cc(O)c12 [genistein],effect on the Isc response to Ace,[1],no effect
ω-conotoxin,effect on Ace-induced Isc response,[1],no significant effect
C[C@@H]1O[C@@H](O[C@H]2C[C@@H](O)[C@]3(CO)[C@H]4[C@H](O)C[C@]5(C)[C@@H](C6=CC(=O)OC6)CC[C@]5(O)[C@@H]4CC[C@]3(O)C2)[C@H](O)[C@H](O)[C@H]1O [ouabain],effect on Ace-induced Isc,[1],inhibits and reverses
"O=S(=O)(O)c1cc(N=C=S)ccc1C=Cc1ccc(N=C=S)cc1S(=O)(=O)O.[Na] [DIDS, 4,4′-diisothiocyanostilbene-2,2′-disulfonic acid, sodium]",inhibition at 500 µM,"[1]; Homo sapiens, T84, read-out: inhibition of the Ace-induced Isc response",50%
same,decrease in ACE-stimulated Isc,[2],40%
same,inhibition of forskolin-induced Isc response,polarized T84 cells,40%
same,inhibition of thapsigargin-induced Isc response,polarized T84 cells,100%
